Here are results for five compounds from US6569834B1, “Elucidation and synthesis of antineoplastic tetrapeptide w-aminoalkyl-amides” (priority 1992, dated 2003).

Values after ≈ are worked out from the molar mass of the structure shown.

One may read the TGI as the concentration giving total growth inhibition.

What all share (assay type): cell-based
The test system of one experiment is P-388. In words: Cancer cell growth inhibition, murine P388 lymphocytic leukemia cell line. The settings on record: Mouse leukemia cell P-388. Details: unit not given here. The text has this: (§1) The extraordinary inhibition of cell growth shown by the tetrapeptide w-aminoalkylamides 6a-d against six major types of human cancer and against the murine P388 lymphocytic leukemia cell line has been presented in Table I.

In the next experiment the test system is OVCAR-3. Description: Human cancer cell growth inhibition, ovarian OVCAR-3.
Source text: (§2) Only two hundred years ago, many diseases ravaged humankind. Many of these diseases have been controlled or eradicated. In the development of the means to treat or control these diseases, work with the appropriate common experimental animals was of critical importance. With the various types of cancers, and with the HIV virus, such work is presently ongoing. The research for the treatment of various types of cancer is coordinated by the National Cancer Institute (NCI). NCI, as a government entity, has been charged with assisting anti-cancer research. To establish whether a substance has anti cancer activity, NCI has established a protocol. This protocol, which involves testing a substance against a cell line panel containing 60 human tumor cell lines, has been verified, and is accepted in scientific circles. This protocol, and the established statistical means of evaluating the results obtained therefrom have been amply described in the literature. See e.g. Principles & Practice of Oncology PPO Updates, Volume 3, Number 10, October 1989, by Michael R. Boyd, M. D., Ph.D., for a description of the protocol. The statistical analysis is explained in “Display and Analysis of Patterns of Differential Activity of Drugs Against Human Tumor Cell Lines: Development of Mean Graph and COMPARE Algorithm” Journal of the National Cancer Institute Reports Vol. 81, No. 14, Pg. 1088, July 14, 1989, by K. D. Paull et al. Both articles are incorporated herein by this reference as if fully set forth.
as §1

Another experiment has as its system SF-295. Description: Human cancer cell growth inhibition, CNS SF-295.
Source text: as §2, §1

For another experiment, the system named is A498. In words: Human cancer cell growth inhibition, renal A498.
Source text: as §2, §1

The next experiment relates to NCI-460. In words: Human cancer cell growth inhibition, Lung-NSC NCI-460.
Source text: as §2, §1

Another experiment relates to KM20L2. In words: Human cancer cell growth inhibition, colon KM20L2.
Source text: as §2, §1

A further experiment concerns SK-MEL-3. Description: Human cancer cell growth inhibition, melanoma SK-MEL-3.
Source text: as §2, §1

For another experiment, the system named is human cancer cell line. Description: Human cancer cell line activity compared to dolastatin 10.

As to `CC[C@H](C)[C@@H]([C@@H](CC(=O)N1CCC[C@H]1[C@H](OC)[C@@H](C)C(=O)NCCN(C)C)OC)N(C)C(=O)[C@@H](NC(=O)[C@H](C(C)C)N(C)C)C(C)C` [Peptide 6c, [2S-[1[1R*(R*),2S*],2R*[1S*,2S*]]]-N,N-dimethyl-L-valyl-N-[2-methoxy-4-[2-[1-methoxy-2-methyl-3-oxo-3-[[2-dimethylamino-ethyl]amino]propyl]-1-pyrrolidinyl-1-(methylpropyl)-4-oxobutyl]-N-methyl-L-valineamide], the “Cancer cell growth inhibitory activity” value in the experiment on P-388 is <0.1. Further, the GI-50 with OVCAR-3 is 0.0028 µg/mL; in the experiment with SF-295, 0.0033 µg/mL; in the experiment with A498, 0.0025 µg/mL; with NCI-460 it was 0.0051 µg/mL; in the experiment on KM20L2 it was <0.01 µg/mL; in the experiment with SK-MEL-3, <0.01 µg/mL. Moreover, the TGI was 8.6 ng/mL (≈ 0.0129 µM) in the experiment with OVCAR-3; <10 ng/mL in the experiment with SF-295; 5.6 ng/mL (≈ 0.00837 µM) with A498; <10 ng/mL in the experiment with NCI-460; <10 ng/mL in the experiment with KM20L2; <10 ng/mL with SK-MEL-3.
Take `CC[C@H](C)[C@@H]([C@@H](CC(=O)N1CCC[C@H]1[C@H](OC)[C@@H](C)C(=O)NCCc1ccccn1)OC)N(C)C(=O)[C@@H](NC(=O)[C@H](C(C)C)N(C)C)C(C)C` [Peptide 6a, [2S-[1[1R*(R*),2S*],2R*[1S*,2S*]]]-N,N-dimethyl-L-valyl-N-[2-methoxy-4-[2-[1-methoxy-2-methyl-3-oxo-3-[[2-(2-pyridyl)ethyl]amino]propyl]-1-pyrrolidinyl-1-(methylpropyl)-4-oxobutyl]-N-methyl-L-valineamide]: the “Cancer cell growth inhibitory activity” value in the experiment with P-388 came out at 0.000713. For the same compound, the GI-50 is 0.000039 µg/mL in the experiment on OVCAR-3; 0.00035 µg/mL in the experiment on SF-295; 0.00043 µg/mL with A498; 0.00024 µg/mL in the experiment on NCI-460; 0.000062 µg/mL in the experiment on KM20L2; 0.000065 µg/mL in the experiment on SK-MEL-3. The TGI with OVCAR-3 was 0.21 ng/mL (≈ 0.000299 µM); with SF-295, <10 ng/mL; in the experiment on A498, <10 ng/mL; in the experiment on NCI-460, 0.8 ng/mL (≈ 0.00114 µM); with KM20L2 it was 1.1 ng/mL (≈ 0.00156 µM); with SK-MEL-3, 0.77 ng/mL (≈ 0.0011 µM).
With `CC[C@H](C)[C@@H]([C@@H](CC(=O)N1CCC[C@H]1[C@H](OC)[C@@H](C)C(=O)NCCN1CCOCC1)OC)N(C)C(=O)[C@@H](NC(=O)[C@H](C(C)C)N(C)C)C(C)C` [Peptide 6b, [2S-[1[1R*(R*),2S*],2R*[1S*,2S*]]]-N,N-dimethyl-L-valyl-N-[2-methoxy-4-[2-[1-methoxy-2-methyl-3-oxo-3-[[2-(4-morpholino)ethyl]amino]propyl]-1-pyrrolidinyl-1-(methylpropyl)-4-oxobutyl]-N-methyl-L-valineamide], the “Cancer cell growth inhibitory activity” value in the experiment with P-388 was 0.0736. In addition, the GI-50 in the experiment on OVCAR-3, with SF-295, in the experiment with A498, in the experiment on NCI-460, in the experiment with KM20L2 and with SK-MEL-3 was <0.0001 µg/mL throughout. Moreover, the TGI with OVCAR-3, in the experiment with SF-295, in the experiment on A498, in the experiment with NCI-460, in the experiment with KM20L2 and with SK-MEL-3 was <0.1 ng/mL throughout.
In the case of `CC[C@H](C)[C@@H]([C@@H](CC(=O)N1CCC[C@H]1[C@H](OC)[C@@H](C)C(=O)NCCCN(C)C)OC)N(C)C(=O)[C@@H](NC(=O)[C@H](C(C)C)N(C)C)C(C)C` [Peptide 6d, [2S-[1[1R*(R*),2S*],2R*[1S*,2S*]]]-N,N-dimethyl-L-valyl-N-[2-methoxy-4-[2-[1-methoxy-2-methyl-3-oxo-3-[[3-dimethylamino-propyl]amino]propyl]-1-pyrrolidinyl-1-(methylpropyl)-4-oxobutyl]-N-methyl-L-valineamide], the “Cancer cell growth inhibitory activity” value in the experiment with P-388 is 0.881. In addition, the GI-50 was <0.01 µg/mL with OVCAR-3; <0.01 µg/mL in the experiment on SF-295; <0.01 µg/mL with A498; 0.0072 µg/mL with NCI-460; <0.01 µg/mL with KM20L2; <0.01 µg/mL in the experiment with SK-MEL-3. In addition, the TGI in the experiment with OVCAR-3, in the experiment with SF-295, in the experiment on A498, in the experiment with NCI-460, in the experiment on KM20L2 and in the experiment with SK-MEL-3 was <10 ng/mL in each case.
In the case of R-Doe-isodolastatin 10, the “human cancer cell line activity as compared to dolastatin 10” value with human cancer cell line was “did not show any significant difference”.
